Each molecule was assayed on 22Rv1-Enz^R human prostate cancer cell line (assay: 22Rv1-Enz^R cell proliferation assay). Details: 22Rv1-Enz^R cells, 6-day culture, cell media changed every 24 hours, read-out: 22Rv1-Enz^R proliferation assay GIC50 (half maximal growth inhibition constant).
Type: cell-based
Method: The human prostate cancer cell line, 22Rv1 has been reported to express a high level of AR-V7. According to one procedure, 22Rv1 is seeded at 50,000 cells/well on a 24-well plate in quadruplicate and treated with test compounds in concentrations ranging up to 20 μM for four days. Standard culture media is RPMI-1640 supplemented with 10% fetal bovine serum. The test compound initially is dissolved in DMSO at 50 mM. This stock solution is then diluted as needed for the indicated concentrations. At the end of the four-day period, cells are harvested using 1% trypsin and counted using an automated cell counter.
Cell Culture. Human CaP cell lines, LNCaP, 22Rv1, VCaP, PC3, and DU145 are obtained from the American Type Culture Collection (ATCC) and maintained in the standard culture media: RPMI-1640 supplemented with 10% fetal bovine serum (FBS). LNCaP, 22Rv1, and VCaP are androgen-responsive cell lines, while PC3 and DU145 are not. To establish SAT resistant CaP cell lines, LNCaP, 22Rv1, and VCaP are treated continuously with 10-50 μM abiraterone, apalutamide, darolutamide, or enzalutamide. After 3-6 months, stable cell lines are established and designated as LNCaP-Abi^R, LNCaP-Apa^R, LNCaP-Daro^R, LNCaP-Enz^R, VCaP-Abi^R, VCaP-Apa^R, VCaP-Daro^R, VCaP-Enz^R, 22Rv1-Abi^R, 22Rv1-Apa^R, 22Rv1-Daro^R and 22Rv1-Enz^R. Unless otherwise specified, the standard culture media for these SAT-resistant cell lines included 10 μM of their respective SAT. For the proteasome inhibitor study, the inhibitors MG132 and Epoxomicin are used. The E3 ligase inhibitors Heclin, Nutlin 3a, Thalidomide, and VH298 are used. Cell lines obtained from ATCC are confirmed by checking their morphology using optical microscopy, establishing baselines for cell proliferation, verifying species of origin using isoenzymology, and characterizing the cell's DNA fingerprint using short tandem repeat (STR) profiling. Mycoplasma contamination is also assessed using a PCR based detection system.
Selected compounds may be tested in the human prostate cancer cell line, 22Rv1-Enz^R, as described in Geun Taek Lee et al., Molecular Cancer Therapeutics, 20:490-9 (2021). These procedures are similar to that described in Experimental Example 1, above, except that the assay conditions are a 6-day culture with cell media changed every 24 hours.

| SMILES | IC50 |
| --- | --- |
| O=C(COc1c(-c2csc(N3CCOCC3)n2)ccc(F)c1F)NCCCCC(=O)N1CCN(c2cc3c(cc2F)C(=O)N(C2CCC(=O)NC2=O)C3=O)CC1 (stereo not drawn) [Example 1, 2-(2,3-difluoro-6-(2-morpholinothiazol-4-yl)phenoxy)-N-(5-(4-(2-(2,6-dioxopiperidin-3-yl)-6-fluoro-1,3-dioxoisoindolin-5-yl)piperazin-1-yl)-5-oxopentyl)acetamide] | < 10 µM |
| O=C(COc1c(-c2csc(N3CCOCC3)n2)ccc(F)c1F)NCCCCCCC(=O)N1CCN(c2cc3c(cc2F)C(=O)N(C2CCC(=O)NC2=O)C3=O)CC1 (stereo not drawn) [Example 2, 2-(2,3-difluoro-6-(2-morpholinothiazol-4-yl)phenoxy)-N-(7-(4-(2-(2,6-dioxopiperidin-3-yl)-6-fluoro-1,3-dioxoisoindolin-5-yl)piperazin-1-yl)-7-oxoheptyl)acetamide] | < 10 µM |
| O=C(COc1c(-c2csc(N3CCOCC3)n2)ccc(F)c1F)NCCCCCCCCCCC(=O)N1CCN(c2cc3c(cc2F)C(=O)N(C2CCC(=O)NC2=O)C3=O)CC1 (stereo not drawn) [Example 3, 2-(2,3-difluoro-6-(2-morpholinothiazol-4-yl)phenoxy)-N-(11-(4-(2-(2,6-dioxopiperidin-3-yl)-6-fluoro-1,3-dioxoisoindolin-5-yl)piperazin-1-yl)-11-oxoundecyl)acetamide] | < 10 µM |
| O=C1CCC(N2C(=O)c3cc(F)c(N4CCN(CC5CCN(C(=O)COc6c(-c7csc(N8CCOCC8)n7)ccc(F)c6F)CC5)CC4)cc3C2=O)C(=O)N1 (stereo not drawn) [Example 20, 5-(4-((1-(2-(2,3-difluoro-6-(2-morpholinothiazol-4-yl)phenoxy)acetyl)piperidin-4-yl)methyl)piperazin-1-yl)-2-(2,6-dioxopiperidin-3-yl)-6-fluoroisoindoline-1,3-dione] | < 10 µM |
| O=C(COc1c(-c2csc(N3CCOCC3)n2)ccc(F)c1F)NCCCCCCCCCCNc1cc2c(cc1F)C(=O)N(C1CCC(=O)NC1=O)C2=O (stereo not drawn) [Example 25, 2-(2,3-difluoro-6-(2-morpholinothiazol-4-yl)phenoxy)-N-(10-((2-(2,6-dioxopiperidin-3-yl)-6-fluoro-1,3-dioxoisoindolin-5-yl)amino)decyl)acetamide] | < 10 µM |
| O=C1CCC(N2C(=O)c3cc(F)c(NCCCCOCCOCCOCCOc4c(-c5csc(N6CCOCC6)n5)ccc(F)c4F)cc3C2=O)C(=O)N1 (stereo not drawn) [Example 32, 5-((4-(2-(2-(2-(2,3-difluoro-6-(2-morpholinothiazol-4-yl)phenoxy)ethoxy)ethoxy)ethoxy)butyl)amino)-2-(2,6-dioxopiperidin-3-yl)-6-fluoroisoindoline-1,3-dione] | < 10 µM |

— patent US20240376118A1, “BI-FUNCTIONAL COMPOUNDS AND METHODS FOR TARGETED UBIQUITINATION OF ANDROGEN RECEPTOR” (MONTELINO THERAPEUTICS, INC., priority 2021, published 2024)
